These results are taken from patent publication US20250332276A1, “Inhibitors of Molluscum Contagiosum Infection and Methods Using the Same” (priority 2022, published 2025).

The structures appear in SMILES notation. Where two headings read alike, the source gives them in different places. *1 amine or outer side, *2 acyl side, *3 side chain or, on linkers, in order; H or OH if unused. Where a SMILES comes first, the peptide text is derived from it. The star is where a group is joined. X1 = CCC(C(=O)Nc1sc(C(=O)*)c(C)c1C(=O)OC)c1ccc(C(F)(F)F)cc1; Ethylenediamine = C(CN[*:2])N[*:1]; Boc = CC(C)(C)OC(=O)*

Series [1] addresses T1, mD4 (Molluscum contagiosum virus, UniProt Q98260). Briefly: mD4 dependent processive DNA synthesis in vitro (mD4 anti-processivity). The format is biochemical.
Series [2] concerns the target T1, mD4. Briefly: Micro-Scale Thermophoresis binding to mD4. Conditions: microscale thermophoresis. A general note: Microscale thermophoresis detects binding through changes in fluorescence in a small temperature gradient.
Series [3] is described as follows: 3-Day Cell Viability Assay (cytotoxicity).
A further series deals with mD4 (mD4+A20+Pol) (Molluscum contagiosum virus subtype 1, UniProt Q98260). Briefly: biochemical.
Setting [4] is: Table 2, read-out: IC50 (μM), mD4 anti-processivity activity.

T1 sequence (Q98260 1-226): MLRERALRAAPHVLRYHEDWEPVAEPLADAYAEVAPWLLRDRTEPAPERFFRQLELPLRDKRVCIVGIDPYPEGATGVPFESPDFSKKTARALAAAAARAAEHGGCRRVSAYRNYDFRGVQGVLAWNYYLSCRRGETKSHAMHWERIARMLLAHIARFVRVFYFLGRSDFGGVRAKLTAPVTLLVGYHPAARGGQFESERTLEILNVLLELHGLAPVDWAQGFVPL
Sequence of mD4 (mD4+A20+Pol) (Q98260 1-226): as above

The IC50 is the concentration at which inhibition is half-maximal. As to `CCC(C(=O)Nc1sc(C(=O)NCCNC(=O)[C@@H](NC(=O)[C@@H](NC(=O)OC(C)(C)C)C(C)C)C(C)C)c(C)c1C(=O)OC)c1ccc(F)cc1` (stereo partly drawn) [Compound 5, Methyl 5-(((6S,9S)-6,9-diisopropyl-2,2-dimethyl-4,7,10-trioxo-3-oxa-5,8,11-triazatridecan-13-yl)carbamoyl)-2-(2-(4-fluorophenyl)butanamido)-4-methylthiophene-3-carboxylate], the 50% inhibitory concentration (IC50) on mD4 [1] (setting [4]) was 20 µM.
On the same count and under the same terms, for `CCC(C(=O)Nc1sc(C(=O)NCCNC(=O)[C@@H](NC(=O)[C@@H](NC(=O)[C@@H](NC(=O)OC(C)(C)C)C(C)C)C(C)C)C(C)C)c(C)c1C(=O)OC)c1ccc(F)cc1` (stereo partly drawn) [Compound 8, Methyl 2-(2-(4-fluorophenyl)butanamido)-4-methyl-S-(((6S,9S,12S)-6,9,12-triisopropyl-2,2-dimethyl-4,7,10,13-tetraoxo-3-oxa-5,8,11,14-tetraazahexadecan-16-yl)carbamoyl)thiophene-3-carboxylate] the value was 10.7 µM.
The Kd is the constant that tells how readily two partners part at equilibrium. Low values mean tighter binding, high ones weaker binding. The CC50 is the concentration giving 50% cytotoxicity. Consider `CCC(C(=O)Nc1sc(C(=O)NCCNC(=O)[C@@H](NC(=O)[C@@H](NC(=O)[C@@H](N)C(C)C)C(C)C)C(C)C)c(C)c1C(=O)OC)c1ccc(F)cc1` (stereo partly drawn) [Compound 9, Methyl 5-((2-((S)-2-((S)-2-((S)-2-amino-3-methylbutanamido)-3-methylbutanamido)-3-methylbutanamido)ethyl)carbamoyl)-2-(2-(4-fluorophenyl)butanamido)-4-methylthiophene-3-carboxylate], for which the concentration for half-maximal inhibition (IC50) at mD4 [1] (read-out: IC50, mD4 dependent processive DNA synthesis in vitro) came out at 5 µM; on mD4 (mD4+A20+Pol), 5.6 µM. Further, binding on mD4 [2] was put at a Kd of 2.84 µM. Also, in series [3], the CC50 at 3 day is above 100 µM. In addition, the “cytotoxicity, result in words” value in series [3] (cell viability assay or seen when evaluated in mD4-VV infection) is “no measurable cytotoxicity”.
For the molecule `CCC(C(=O)Nc1sc(C(=O)NCCNC(=O)[C@H](NC(=O)[C@H](NC(=O)[C@H](N)C(C)C)C(C)C)C(C)C)c(C)c1C(=O)OC)c1ccc(F)cc1` (stereo partly drawn) [Compound 20, Methyl 5-((2-((R)-2-((R)-2-((R)-2-amino-3-methylbutanamido)-3-methylbutanamido)-3-methylbutanamido)ethyl)carbamoyl)-2-(2-(4-fluorophenyl)butanamido)-4-methylthiophene-3-carboxylate], at mD4 [1] (setting [4]), the IC50 was found to be 3 µM.
Still for that read-out and setting: the figure for `CCC(C(=O)Nc1sc(C(=O)NCCNC(=O)[C@@H](NC(=O)[C@@H](NC(=O)[C@@H](NC(=O)[C@@H](NC(=O)OC(C)(C)C)C(C)C)C(C)C)C(C)C)C(C)C)c(C)c1C(=O)OC)c1ccc(C(F)(F)F)cc1` (stereo partly drawn) [Compound 26, Methyl 4-methyl-5-(((6S,9S,12S,15S)-6,9,12,15-tetraisopropyl-2,2-dimethyl-4,7,10,13,16-pentaoxo-3-oxa-5,8,11,14,17-pentaazanonadecan-19-yl)carbamoyl)-2-(2-(4-(trifluoromethyl)phenyl)butanamido)thiophene-3-carboxylate] (Boc-VVVV-{Ethylenediamine-X1}) is 4.1 µM.
Molecule `CC(C)[C@H](N)C(=O)N[C@H](C(=O)N[C@H](C(=O)O)C(C)C)C(C)C` [TriVal-Peptide Control, ((L)-Val)3, reference compound] (H-Val-Val-Val-OH) returned an IC50 at mD4 (mD4+A20+Pol) above 100 µM.
